Data on 1 molecule can be found in US20040180908A1, “Adenosine derivative in polymorph ii form” (priority 2001, published 2004).

SMILES strings stand for the structures.

A short description of the series: stability of the polymorph at elevated temperatures. As to conditions: for example in excess of 70° C. The format is physicochemical.

In the case of `CC(C)(C)c1nnc([C@H]2O[C@@H](n3cnc4c(Nc5ccc(Cl)cc5F)ncnc43)[C@H](O)[C@@H]2O)o1` [Polymorph II, (2S,3S,4R,5R)-2-(5-tert-butyl-[1,3,4]-oxadiazol-2-yl)-5-[6-(4-chloro-2-fluorophenylamino)-9H-purin-9-yl]-tetrahydrofuran-3,4-diol], the “stability at elevated temperatures” value is given as “particular stability at elevated temperatures”.
